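Test compounds were applied to cells in 96-well plates for 48 hours at 5 doses. GI50 is the concentration that inhibits growth by half.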 Activity calls are given as the source filed them. No stated cut-off is given here; in the data, active = GI50 up to about 1.1 µM and inactive = higher.
Tests used:
Assay in all cases: NCI anticancer screen, dose series, 48 h
A498 = system: A498
CCRF-CEM = system: CCRF-CEM
EKVX = system: EKVX
HCC 2998 = system: HCC 2998
HOP-62 = system: HOP-62
KM-20L2 = system: KM-20L2
Malme-3M = system: Malme-3M
OVCAR-4 = system: OVCAR-4
OVCAR-5 = system: OVCAR-5
RPMI-8226 = system: RPMI-8226
SF-268 = system: SF-268
SF-295 = system: SF-295
SF-539 = system: SF-539
SK-MEL-2 = system: SK-MEL-2
SK-MEL-5 = system: SK-MEL-5
SNB-78 = system: SNB-78
TK-10 = system: TK-10
UACC-257 = system: UACC-257

Row | Compound | GI50 (A498) | GI50 (CCRF-CEM) | GI50 (EKVX) | GI50 (HCC 2998) | GI50 (HOP-62) | GI50 (KM-20L2) | GI50 (Malme-3M) | GI50 (OVCAR-4) | GI50 (OVCAR-5) | GI50 (RPMI-8226) | GI50 (SF-268) | GI50 (SF-295) | GI50 (SF-539) | GI50 (SK-MEL-2) | GI50 (SK-MEL-5) | GI50 (SNB-78) | GI50 (TK-10) | GI50 (UACC-257)
1 | C=CC1(C)CC(=O)C2(O)C(C)(O1)C(OC(C)=O)C(O)C1C(C)(C)CCC(O)C12C (stereo unspecified) | > 150 µM (inactive) | 22.2 µM (inactive) | > 150 µM (inactive) | > 146 µM (inactive) | 59.7 µM (inactive) | 110 µM (inactive) | > 150 µM (inactive) | > 54.8 µM (inactive) | 4.84 µM (inactive) | 27.1 µM (inactive) | > 128 µM (inactive) | > 142 µM (inactive) | 33.1 µM (inactive) | > 143 µM (inactive) | 89.3 µM (inactive) | 5.4 µM (inactive) | 1.45 µM (inactive) | > 150 µM (inactive)
2 | O=C(/C=C/c1ccccc1Cl)c1ccccc1Cl | 49.1 µM (inactive) | 20.4 µM (inactive) | 22.4 µM (inactive) | 21.6 µM (inactive) | 47.8 µM (inactive) | 18.1 µM (inactive) | 31.8 µM (inactive) | 20.7 µM (inactive) | 21.1 µM (inactive) | 16 µM (inactive) | 23.4 µM (inactive) | 22.6 µM (inactive) | 17.6 µM (inactive) |  | 31.6 µM (inactive) | 22.4 µM (inactive) | 37.5 µM (inactive) | 19.8 µM (inactive)
3 | CCC(=O)OC[n+]1ccc2c(C)c3[nH]c4ccccc4c3c(C)c2c1 | 1.21 µM (inactive) | 0.444 µM (active) |  |  |  | 0.504 µM (active) | 1.35 µM (inactive) | 0.505 µM (active) | 0.516 µM (active) | 0.284 µM (active) | 0.552 µM (active) | 0.532 µM (active) | 0.478 µM (active) | 1.03 µM (active) | 1.25 µM (inactive) | 1.29 µM (inactive) | 1.36 µM (inactive) | 1.37 µM (inactive)
4 | O=C(/C=C1\Nc2ccccc2C(=O)N1c1ccc(Cl)cc1)c1ccncc1 | 75.7 µM (inactive) | > 100 µM (inactive) | > 100 µM (inactive) |  | > 100 µM (inactive) | > 100 µM (inactive) | 60.1 µM (inactive) | > 100 µM (inactive) | > 100 µM (inactive) | > 100 µM (inactive) | > 100 µM (inactive) | 65 µM (inactive) |  | > 100 µM (inactive) | > 100 µM (inactive) | > 100 µM (inactive) | > 100 µM (inactive) | > 100 µM (inactive)
5 | O=C(c1ccccc1)C1CCCCN1C(=O)c1ccccc1 (stereo unspecified) | > 100 µM (inactive) | > 100 µM (inactive) |  | > 100 µM (inactive) | > 100 µM (inactive) | > 100 µM (inactive) | > 100 µM (inactive) | > 100 µM (inactive) |  | > 100 µM (inactive) | > 100 µM (inactive) |  | > 100 µM (inactive) | > 100 µM (inactive) | > 100 µM (inactive) | > 100 µM (inactive) | > 100 µM (inactive) | > 100 µM (inactive)
6 | C=CCNC1=NC(=O)C(CC(=O)Nc2ccc([N+](=O)[O-])cc2[N+](=O)[O-])S1 (stereo unspecified) | > 100 µM (inactive) | > 100 µM (inactive) | > 100 µM (inactive) | > 100 µM (inactive) | > 100 µM (inactive) | > 100 µM (inactive) | > 100 µM (inactive) | 95.7 µM (inactive) | > 100 µM (inactive) |  | > 100 µM (inactive) | > 100 µM (inactive) | > 100 µM (inactive) | > 100 µM (inactive) | > 100 µM (inactive) | > 100 µM (inactive) | 98.6 µM (inactive) | > 100 µM (inactive)
7 | O=C(O)c1ccc(C2=Cc3cc(Cl)ccc3OC2)cc1 | > 100 µM (inactive) | > 100 µM (inactive) | > 100 µM (inactive) | > 100 µM (inactive) | > 100 µM (inactive) | > 100 µM (inactive) | > 100 µM (inactive) |  | > 100 µM (inactive) | > 100 µM (inactive) | > 100 µM (inactive) | > 100 µM (inactive) | > 100 µM (inactive) | > 100 µM (inactive) | > 100 µM (inactive) | > 100 µM (inactive) | > 100 µM (inactive) | > 100 µM (inactive)
8 | CN(C)CCOc1cccc2c1C(=O)c1ccccc1C2=O | 18.1 µM (inactive) | 11.4 µM (inactive) | 18.4 µM (inactive) | 13.9 µM (inactive) | 13.6 µM (inactive) | 13.9 µM (inactive) | 13.6 µM (inactive) | 6.14 µM (inactive) | 16.5 µM (inactive) |  | 9.79 µM (inactive) | 15.1 µM (inactive) | 10.4 µM (inactive) | 14.2 µM (inactive) | 12.8 µM (inactive) | 13.6 µM (inactive) | 17.3 µM (inactive) | 13.1 µM (inactive)
9 | O=C1C2C=CC(C2)C(c2ccc(O)cc2)N1O (stereo unspecified) | > 100 µM (inactive) | > 100 µM (inactive) | > 100 µM (inactive) | > 100 µM (inactive) | > 100 µM (inactive) | > 100 µM (inactive) | > 100 µM (inactive) | > 100 µM (inactive) | > 100 µM (inactive) | > 100 µM (inactive) | > 100 µM (inactive) | > 100 µM (inactive) |  | > 100 µM (inactive) | > 100 µM (inactive) | > 100 µM (inactive) | > 100 µM (inactive) | > 100 µM (inactive)
10 | COC(=O)C(C(=O)C(=O)Nc1cccc(C)c1)C1=NC(N)SS1 (stereo unspecified) | > 100 µM (inactive) | > 100 µM (inactive) | > 100 µM (inactive) | > 100 µM (inactive) | > 100 µM (inactive) | > 100 µM (inactive) | > 100 µM (inactive) | > 100 µM (inactive) | > 100 µM (inactive) | > 100 µM (inactive) | > 100 µM (inactive) | > 100 µM (inactive) | > 100 µM (inactive) | > 100 µM (inactive) | > 100 µM (inactive) | > 100 µM (inactive) | > 100 µM (inactive) | > 100 µM (inactive)
11 | COC(C(=O)NCCCCNC(=O)C(OC)c1ccccc1)c1ccccc1 (stereo unspecified) | > 100 µM (inactive) | > 100 µM (inactive) | > 100 µM (inactive) |  | > 100 µM (inactive) | > 100 µM (inactive) | > 100 µM (inactive) | > 100 µM (inactive) | > 100 µM (inactive) | > 100 µM (inactive) | > 100 µM (inactive) | > 100 µM (inactive) | > 100 µM (inactive) | > 100 µM (inactive) | > 100 µM (inactive) | > 100 µM (inactive) | > 100 µM (inactive) | > 100 µM (inactive)
12 | CC12CCC(CC1)C(C)(C)O2 [EUCALYPTOL] | 0.923 µM (active) |  | 38 µM (inactive) | 26.4 µM (inactive) | 12.6 µM (inactive) | 38.8 µM (inactive) | 54.6 µM (inactive) | 61.1 µM (inactive) | 64.7 µM (inactive) | 23.4 µM (inactive) | 42 µM (inactive) | 21.5 µM (inactive) | 18.3 µM (inactive) | 47.3 µM (inactive) | 5.5 µM (inactive) | 67.6 µM (inactive) | > 100 µM (inactive) | 16.9 µM (inactive)
